The text below walks through data of patent US20110306775A1, “SYNTHESIS AND BIOLOGICAL EVALUATION OF 2',5'-DIMETHOXYCHALCONE DERIVATIVES AS MICROTUBULE-TARGETED ANTICANCER AGENTS” (KAOHSIUNG MEDICAL UNIVERSITY, priority 2010, published 2011).

For data set [1], the system named is PC3 cells. Kind of data set: MTT cytotoxicity assay, PC3 cells. The data set is classed as cell-based, human. The conditions noted are these: for IC50: mean ± SD, n = 3-5. From the text: (§1) The cell lines of the present invention were an human urothelial carcinoma cell line (NTUB1), a human prostate cancer cell line (PC3), a human lung adenocarcinoma epithelial cell line (A549) and a SV-40 immortalized human uroepithelial cell line (SV-HUC1). However, the cell lines applied in the present invention includes but not limit in NTUB1, PC3, A549 and SV-HUC1 cells. Other cell lines having the same characteristics or not exactly the same characteristics are able to be used in the present invention. NTUB1, PC3 and A549 cells were maintained in RPMI 1640 and SV-HUC1 cells were maintained in F12 medium supplemented with 10% fetal bovine serum (FBS), 100 unit/mL penicillin-G, 100 μg/mL streptomycin and 2 mM glutamine. The cells were cultured at 37° C. in a humidified atmosphere containing 5% carbon dioxide.
(§2) The cytotoxic effect of compounds 1 to 18 of the present invention and cisplatin (positive control) on the cell lines was evaluated using 3-[4,5-dimethylthiazol-2-yl]-2,5-diphenyltetrazolium bromide (MTT) assay. Briefly, the cells were plated at a density of 1800 cells/well in 96-well plates and incubated in the presence of graded concentrations of compounds 1 to 18 and cisplatin at 37° C. for 72 hours. At the end of the culture period, 50 μL of MTT ([…] in PBS) was added to each well and allowed to react for 3 hours. Following centrifugation of plates at 1000 g for 10 minutes, media were removed and 150 μL dimethyl sulfoxide (DMSO) were added to each well. The proportions of surviving cells were determined by absorbance spectrometry at 540 nm. The cell viability was expressed as a percentage to the viable cells of control culture condition. The IC50 value of each group were calculated by the median-effect analysis and presented as mean±standard deviation (SD).
(In general: Tetrazolium dyes change colour on reduction, which living cells bring about.)

Data set [2] has as its system NTUB1 cells. Put plainly: MTT cytotoxicity assay, NTUB1 cells. It is filed as cell-based, human. The note with it: for IC50: mean ± SD, n = 3-5.
Text: as §1, §2

In data set [3] the test system is PC3 cells. Put plainly: Cell cycle analysis (propidium iodide, flow cytometer), PC3 cells. It is filed as cell-based, human. The conditions noted are these: FIG. 3; for apoptotic cells death: PC3, 0.3 μM; for apoptotic cells: PC3, 1 μM. The protocol: (§3) DNA content was determined following propidium iodide (PI) staining of cells. Briefly, 6×10^5 cells were plated and treated with 20 μM cisplatin and various concentrations of compounds 11 and 15 for 24 hours, respectively. These cells were harvested by trypsinization, washed with 1×PBS, and fixed in ice-cold MeOH at −20° C. After overnight incubation, the cells were washed with PBS and incubated with 50 μg/mL propidium iodide and 50 μg/mL RNase A in PBS at room temperature for 30 minutes. The fractions of cells in each phase of cell cycle were analyzed using flow cytometer.
Background: Flow cytometry measures light scatter and fluorescence of single cells or particles in a stream.

Data set [4] deals with NTUB1 cells. Kind of data set: Cell cycle analysis (propidium iodide, flow cytometer), NTUB1 cells. The note with it: 24 hours, FIG. 2; for apoptotic cell death / cell cycle phase arrest: NTUB1, 1 μM; for cell cycle phase arrest: vs control. It is filed as cell-based, human. The procedure: as §3
The next data set deals with α-tubulin. Kind of data set: Western blot analysis for α-tubulin (soluble vs assembled) in NTUB1 cells. The note with it: 6 hours, FIG. 4. The data set is classed as cell-based, human. The procedure:
NTUB1 cells were seeded at a density of 1×10^6/[…] dishes and treated with indicated concentrations of test agents for 6 hours. The cells were then washed with cold PBS and lysed by adding lysis buffer (20 mM Tris-HCl (pH 6.8), 1 mM MgCl2, 2 mM EGTA (ethylene glycol tetraacetic acid), […] aprotinin, […], 1 mM phenylmethylsulfonyl fluoride, 1 mM orthovanadate, and 0.5% Nonidet P-40). The cell lysates were centrifuged at 15,000 g for 10 min at 4° C. Soluble and assembled tubulin could be separated in supernatant and pellet fraction, respectively. The supernatants and pellets were […] by the sodium dodecyl sulfate (SDS)-polyacrylamide gel electrophoresis assay. The relative amounts of tubulins transferred on the nitrocellulose membrane were detected by anti-tubulin monoclonal antibody and horseradish peroxidase (HRP)-conjugated secondary antibody. β-Actin was used for control. Detection of immunoreactive signal was accomplished with Western blot chemiluminescent reagent.

Data set [5] has as its system NTUB1 cells. Put plainly: Immuno-fluorescence staining of α-tubulin in NTUB1 cells. The data set is classed as cell-based, human. The protocol: In brief, NTUB 1 cells were seeded onto serum-coated coverslides. The cells were fixed with 2% formaldehyde/PBS for 20 minutes followed by cold methanol permeabilization for 3 minutes. The cells were washed with 1×PBS five minutes twice. The cells were then incubated with α-tubulin primary antibody overnight. The cells were washed with 1×PBS five minutes thrice. Goat anti-rabbit-rhodamine secondary antibody and 1 μg/mL 4′-6-diamidino-2-phenylindole (DAPI) were incubated for 1 hour at room temperature. The slides were washed with 1×PBS, mounted with mounting solution (80% glycerol/PBS) and photographed by microscopy.

The subject of another data set is A549 cells. Put plainly: MTT cytotoxicity assay, A549 cells. It is filed as cell-based, human. The note with it: FIG. 1, compared with NTUB1 and PC3.
Text: as §1
(§4) The cytotoxic effect of compounds 1 to 18 of the present invention and cisplatin (positive control) on the cell lines was evaluated using 3-[4,5-dimethylthiazol-2-yl]-2,5-diphenyltetrazolium bromide (MTT) assay. […] The proportions of surviving cells were determined by absorbance spectrometry at 540 nm. The cell viability was expressed as a percentage to the viable cells of control culture condition. The IC50 value of each group were calculated by the median-effect analysis and presented as mean±standard deviation (SD).

The test system of data set [6] is NTUB1 cells. Kind of data set: Cell death and morphology of treated NTUB1 cells. The data set is classed as cell-based, human. The conditions noted are these: NTUB1, different concentrations, 24 hours, data not shown.
A further data set concerns SV-HUC1 cells. Kind of data set: MTT cytotoxicity assay, SV-HUC1 cells. It is filed as cell-based, human. The note with it: FIG. 1, compared with NTUB1 and PC3.
Text: as §1, §4

“Also recorded” adds a separate entry of the source.

What is called IC50 is the concentration that inhibits the measured activity by half. A low value points to greater potency. For “4-(2-methylethyl)carbamoyl-2′,5′-dimethoxychalcone [Compound 11]”, the “cytotoxicity against PC3 cells (in words)” value in the data set with PC3 cells [1] is on record as “significantly enhanced the cytotoxicity”. The compound also gave a 50% inhibitory concentration (IC50) with PC3 cells [1] (72 hours) of 1.58 ± 0.08 µM. In addition, the “cytotoxicity against NTUB1 cells (in words)” value with NTUB1 cells [2] is on record as “significantly enhanced the cytotoxicity”. In addition, inhibition with NTUB1 cells [2] (72 hours) was half-maximal at 1.97 ± 0.39 µM (IC50). Further, in the data set with PC3 cells [3], the apoptotic cells death result is listed as “increase of the apoptotic cells death” and the apoptotic cells result was “increase of apoptotic cells”. Moreover, in the data set on NTUB1 cells [4], the apoptotic cell death result is recorded as “increase in apoptotic cell death” and the “cell cycle phase arrest” value is listed as “induced G1 phase arrest”.
The compound `N.N.[Cl][Pt][Cl]` [Cisplatin, cisplatin, reference compound] returned a 50% inhibitory concentration (IC50) in the data set with PC3 cells [1] (72 hours) of 4.56 ± 0.76 µM. Further, the IC50 with NTUB1 cells [2] (72 hours) is 3.27 ± 0.1 µM. Further, in the data set on PC3 cells [3] (PC3, 20 μM, 24 hours), the apoptotic cell death result is listed as “increase of apoptotic cell death” and the cell cycle distribution result is “accumulation of cells in S phase”. In the data set with NTUB1 cells [4] (NTUB1, 20 μM), the cell cycle distribution result is “accumulation of cells in G1 and S phases”; the sub-G1 population entry is “increase of the population of sub-G1 phase”.
The term melting point denotes the temperature, or range, at which the solid turns liquid. The compound `CCNC(=O)c1ccc(/C=C/C(=O)c2cc(OC)ccc2OC)cc1` [Compound 9, 4-ethylcarbamoyl-2′,5′-dimethoxychalcone] came in with a melting point of 213 to 214 °C. The compound also gave a half-inhibitory concentration (IC50) in the data set with PC3 cells [1] (Homo sapiens, PC-3, 72 hours) of 4.18 ± 0.23 µM. Also, in the data set on NTUB1 cells [2] (Homo sapiens, NTUB1, 72 hours), the IC50 came out at 3.76 ± 0.4 µM.
The like results for `COc1ccc(OC)c(C(=O)/C=C/c2ccc(C(=O)NC3CCCCC3)cc2)c1` [Compound 13, 4-cyclohexylcarbamoyl-2′,5′-dimethoxychalcone] were, in that order, 280 to 281 °C, 6.3 ± 0.59 µM and 2.25 ± 0.57 µM.
Turning to `COc1ccc(OC)c(C(=O)C=Cc2ccc(C(=O)N3CCCC3)cc2)c1` [Compound 15, 4-tetrahydropyrrolylcarbamoyl-2′,5′-dimethoxychalcone], in the data set with α-tubulin (NTUB1, various concentrations), the “α-tubulin level in the pellet (assembled)” value is “increased in a dose-dependent manner” and the “α-tubulin level in the supernatant (soluble)” value was “decreased level in a dose-dependent manner”. Also, the “cytotoxicity against PC3 cells (in words)” value in the data set on PC3 cells [1] was “significantly enhanced the cytotoxicity; also recorded: strongest cytotoxicity”. This compound also registered an IC50 with PC3 cells [1] (72 hours) of 0.53 µM. The “cells arrested at mitosis” value in the data set with NTUB1 cells [5] (NTUB1, 1 μM, data not shown) is on record as “induced more NTUB1 cells arrested at mitosis”. Moreover, the microtubule bundle formation result in the data set with NTUB1 cells [5] (NTUB1, immuno-fluorescent microscopy, mimicked the effect of paclitaxel) was “induced the microtubule bundle formation”. Further, the “cytotoxicity against NTUB1 cells (in words)” value with NTUB1 cells [2] was “significantly enhanced the cytotoxicity; also recorded: strongest cytotoxicity”. In the data set with NTUB1 cells [2] (72 hours), this compound returned an IC50 of 1.26 ± 0.25 µM. For the same compound, the “cytotoxicity against A549 cells (in words)” value with A549 cells was “more potent cytotoxic effect against NTUB1 and PC3 cells than that of A549 cells; also recorded: less cytotoxicity”. In the data set with PC3 cells [3], the apoptotic cells death result is reported as “increase of the apoptotic cells death” and the apoptotic cells result was “increase of apoptotic cells”. Besides, in the data set with NTUB1 cells [4], the apoptotic cell death entry was “increase in apoptotic cell death” and the “cell cycle phase arrest” value is “induced G1 phase arrest”. Further, the “cell death and cell shape after treatment” value in the data set with NTUB1 cells [6] was “more cell death and rounding up”. The “cytotoxicity against human normal uroepithelial SV-HUC1 cells (in words)” value with SV-HUC1 cells was “less cytotoxicity against human normal uroepithelial SV-HUC1 cells than those of NTUB1 and PC3 cells lines”.
As to `CC(=O)O[C@H]1C(=O)[C@@]2(C)[C@H]([C@H](OC(=O)c3ccccc3)[C@]3(O)C[C@H](OC(=O)[C@H](O)[C@@H](NC(=O)c4ccccc4)c4ccccc4)C(C)=C1C3(C)C)[C@]1(OC(C)=O)CO[C@@H]1C[C@@H]2O` [Paclitaxel, paclitaxel, reference compound], the tubulin assembly result in the data set with α-tubulin (NTUB1, 500 nM) was “stabilized the tubulin assembly”.
